Measured values taken from the supplement of paper PMC10307832.

Experiments:
Test in all cases: relative viability (nuclei count vs DMSO), 5 days (fraction); higher = more cells survive
QS11 + Palbociclib = compound: C1CC2=C(C1)C=C(C=C2)OC3=NC(=C4C(=N3)N(C=N4)CC5=CC=C(C=C5)C6=CC=CC=C6)N[C@@H](CC7=CC=CC=C7)CO [QS11] + CC(=O)c1c(C)c2cnc(Nc3ccc(N4CCNCC4)cn3)nc2n(C2CCCC2)c1=O [Palbociclib] (partner 0.5 µM)
In short: (§1)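 Relative viability divides the nuclei count in treated wells by that in vehicle wells. Lung cancer cell lines were seeded in 1536-well plates, dosed by pin tool the next day, and fixed and stained after 5 days in one step with final 0.05% Triton X-100, 1% formaldehyde and 1 ug/ml Hoechst. Dosing was a single drug or a fixed anchor-drug dose plus five library-drug doses (not always all listed) in √10 steps, and values are medians of duplicate plates imaged at 4×.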

AZ628 + Trametinib = compound: CC1=C(C=C(C=C1)NC(=O)C2=CC(=CC=C2)C(C)(C)C#N)NC3=CC4=C(C=C3)N=CN(C4=O)C [AZ628] + CC(=O)Nc1cccc(-n2c(=O)n(C3CC3)c(=O)c3c(Nc4ccc(I)cc4F)n(C)c(=O)c(C)c32)c1 [Trametinib] (partner 0.02 µM)
In short: as §1

AZ628 + Alpelisib = compound: CC1=C(C=C(C=C1)NC(=O)C2=CC(=CC=C2)C(C)(C)C#N)NC3=CC4=C(C=C3)N=CN(C4=O)C [AZ628] + Cc1nc(NC(=O)N2CCC[C@H]2C(N)=O)sc1-c1ccnc(C(C)(C)C(F)(F)F)c1 [Alpelisib] (partner 2 µM)
In short: as §1

[1] = compound: C[As](C)SC[C@H](NC(=O)CC[C@H](N)C(=O)O)C(=O)NCC(=O)O [Darinaparsin] + CCNC(=O)c1noc(-c2cc(C(C)C)c(O)cc2O)c1-c1ccc(CN2CCOCC2)cc1 [Luminespib] (partner 0.01 µM)
In short: as §1

| Cell Line | relative viability (QS11 + Palbociclib; first compound 0.08 µM) | relative viability (QS11 + Palbociclib; first compound 0.253 µM) | relative viability (QS11 + Palbociclib; first compound 0.8 µM) | relative viability (QS11 + Palbociclib; first compound 2.53 µM) | relative viability (QS11 + Palbociclib; first compound 8 µM) | relative viability (AZ628 + Trametinib; first compound 0.08 µM) | relative viability (AZ628 + Trametinib; first compound 0.253 µM) | relative viability (AZ628 + Trametinib; first compound 0.8 µM) | relative viability (AZ628 + Trametinib; first compound 2.53 µM) | relative viability (AZ628 + Trametinib; first compound 8 µM) | relative viability (AZ628 + Alpelisib; first compound 0.08 µM) | relative viability (AZ628 + Alpelisib; first compound 0.253 µM) | relative viability (AZ628 + Alpelisib; first compound 0.8 µM) | relative viability (AZ628 + Alpelisib; first compound 2.53 µM) | relative viability (AZ628 + Alpelisib; first compound 8 µM) | relative viability ([1]; first compound 0.08 µM) | relative viability ([1]; first compound 0.8 µM) | relative viability ([1]; first compound 2.53 µM) | relative viability ([1]; first compound 8 µM) |
| --- | --- | --- | --- | --- | --- | --- | --- | --- | --- | --- | --- | --- | --- | --- | --- | --- | --- | --- | --- |
| NCI-H322M | 0.516 | 0.461 | 0.468 | 0.517 | 0.593 | 0.473 | 0.511 | 0.489 | 0.536 | 0.617 | 0.925 | 0.719 | 0.824 | 0.747 | 0.655 | 1.01 | 0.859 | 0.596 | 0.839 |
| NCI-H838 | 0.213 | 0.187 | 0.191 | 0.223 | 0.213 | 0.491 | 0.466 | 0.486 | 0.477 | 0.556 | 1.03 | 0.991 | 0.953 | 0.92 | 0.841 | 0.29 | 0.265 | 0.284 | 0.283 |
| NCI-H2228 | 0.753 | 0.741 | 1.06 | 0.641 | 1.01 | 0.34 | 0.316 | 0.263 | 0.129 | 0.12 | 0.697 | 0.984 | 0.656 | 0.888 | 0.351 | 0.162 | 0.206 | 0.135 | 0.102 |
| NCI-H647 | 0.412 | 0.367 | 0.394 | 0.325 | 0.394 | 0.277 | 0.233 | 0.22 | 0.22 | 0.22 | 1.3 | 0.952 | 0.842 | 1.09 | 0.858 | 0.176 | 0.154 | 0.0855 | 0.215 |
| NCI-H441 | 0.213 | 0.244 | 0.255 | 0.201 | 0.227 | 0.405 | 0.306 | 0.386 | 0.283 | 0.437 | 0.781 | 0.769 | 0.814 | 0.637 | 0.802 | 0.488 | 0.321 | 0.364 | 0.245 |
